Experimental data as given in PMC12654037, “Norditerpene Natural Products from Subterranean Fungi with Anti-Parasitic Activity” (Microorganisms, 2025).

Legend:
HepG2 human hepatocytes = assay: HepG2 cytotoxicity assay (MTS); format: cell-based; details: 48 h, mean +/- SD
Method: HepG2 cytotoxicity assay: Mammalian cell cytotoxicity was assessed in HepG2 human hepatocytes using an MTS 3-(4,5-dimethylthiazol-2-yl)-5-(3-carboxymethoxyphenyl)-2-(4-sulfophenyl)-2H-tetrazolium)-based cytotoxicity assay. For cytotoxicity testing, ∼2250 cells were seeded into each well of a 384-well microtiter plate and incubated for 24 h. Serial dilutions of the compounds were added in triplicate starting at 25 μM. Cells were further incubated for an additional 48 h at 37 °C in an atmosphere containing 5% CO2. Zero-growth control wells were incubated with 5% Triton X-100 for 5 min prior to MTS addition. Following the addition of MTS to all wells, the plates were incubated for an additional 4 h under the same environmental conditions before taking absorbance measurements. Absorbance values were recorded at 490 nm using a Synergy Neo2 multimode reader (BioTek), and values were normalized based on Triton X-100-lysed and no treatment controls. Samples were run in triplicate in each assay, and the experiments were repeated three times.

HuF fibroblast cell line = details: sub-confluent; ref Rusman et al. 2020 [25]; cited from earlier work
P. falciparum line Dd2 = assay: Plasmodium falciparum growth inhibition assay (SYBR Green I), Dd2; details: for EC50: Plasmodium falciparum, DD2, 72 h, read-out: EC50 Dd2 (M)
Method: (§2) Plasmodium falciparum growth inhibition assay: Antiplasmodial EC50 results were determined using a fluorescence-based SYBR Green I assay performed using asynchronous cultures [30, 35]. […] Plates were subsequently frozen at −80 °C to facilitate lysis. […] Relative fluorescence units (RFUs) were normalized based on chloroquine-treated and no treatment controls. Serial dilutions of compounds were prepared in RPMI with final assay conditions of ≤0.2% DMSO. Each assay was conducted in triplicate with three biological replicates.

P. falciparum 3D7 = assay: Plasmodium falciparum growth inhibition assay (SYBR Green I), 3D7; details: 3D7, 72 h, read-out: EC50 3D7(M)
Method: as §2

C. parvum sporozoites = assay: C. parvum invasion inhibition assay; format: cell-based, Cryptosporidium parvum; details: 100 nM, 3 h infection
Method: C. parvum excystation and invasion assays: Oocyst excystation rates in the presence of compounds were determined as previously described. The C. parvum invasion inhibition assays were conducted in two formats. In the first format, described previously, HCT-8 cells were seeded on glass slides (CELLTREAT Scientific Product, Pepperell, MA, USA) and allowed to grow to confluence. Oidiolactone A was added to the cells for one hour. TrtE and DMSO were run in parallel as positive and negative controls, respectively. The cell monolayers were then infected with 1.2 × 10^6 wild-type C. parvum oocysts. After 3 h of incubation at 37 °C, the slides were washed five times with 111 mM D-galactose, fixed with 4% paraformaldehyde, and permeabilized with 0.25% Triton-X. C. parvum sporozoites were detected with rabbit anti-gp40 [39] and Alexa Fluor 594 goat anti-rabbit antibodies. The HCT-8 cell nuclei were stained with 0.09 mM Hoechst. Slides were coded to enable unbiased counting, and sporozoites from at least 10 randomly selected fields were counted in each sample at 100× magnification (Zeiss® Axioscope 5). The percentage of invaded parasites was determined using the following equation: % Invaded parasites = [parasitescompound/parasitesDMSO] × 100. This experiment was run in duplicate with two biological replicates. […]

C. parvum = C. parvum growth inhibition assay (Cp-NLuc-infected HCT-8 cells); format: cell-based, Cryptosporidium parvum; details: for EC50: Cryptosporidium parvum, HCT-8, intracellular nanoluciferase-expressing C. parvum in vitro, Figure 1 table, read-out: EC50 (μM), C. parvum; for parasite inhibition in pilot screen: CpNLuc-infected HCT-8 cells, initial dose 5 µg/mL
Method: C. parvum growth inhibition assays: The in vitro growth inhibition assay of C. parvum has been previously described. Briefly, clear-bottom, white-sided 96 well plates were seeded with HCT-8 cells. Once the cells reached between 50% and 75% confluency, they were infected with Cp-NLuc oocysts (10,000/well) in complete media containing 0.6% taurocholate. At 24 h post-infection (hpi), the infected cells were treated with compounds at various concentrations. DMSO was used as a vehicle control in parallel. Parasite growth was determined at 72 hpi by measuring relative luminescence units (RLUs) using Promega Nano-Glo substrate (Promega, Madison, WI, USA) and a SpectraMax® L Microplate Reader (Molecular Devices, San Jose, CA, USA). The percent inhibition of parasite growth was calculated as [(RLUDMSO − RLUcompound)/RLUDMSO] × 100.

HCT-8 cells = assay: HCT-8 cytotoxicity assay; format: cell-based
Method: (§1) HCT-8 and HFF cytotoxicity assays: Cytotoxicity of the compounds was determined against both confluent (the conditions of the infection assays) and growing HCT-8 and HFF host cells, as previously described. Cells were seeded into white-sided, clear-bottom 96-well plates and grown to either 40% or 100% confluency. Compounds were added to cells at various concentrations up to 100 µM in a final DMSO concentration of 0.5%. DMSO was run in parallel as a vehicle control. After 48 h, the viability of the cells was determined by either quantification of cellular ATP (Cell-Titer Glo cell viability assay; Promega, Madison WI, USA) or by MTT assay. Viability was determined 24 h after compound addition to HFF cells or 48 h after compound addition to HCT-8 cells or HepG2 cells. The percent cell growth was then calculated with the following formula: % Cell Growth = [RLUcompound/RLUDMSO] × 100. Samples were run in triplicate with two to three biological replicates.

HFF cells = assay: HFF cytotoxicity assay; format: cell-based; details: confluent
Method: as §1

| Compound | TC50 HepG2 (HepG2 human hepatocytes) | TC50 HuF (sub-confluent) (HuF fibroblast cell line) | EC50 (P. falciparum line Dd2) | EC50 (P. falciparum 3D7) | effect on parasite invasion (positive control) (C. parvum sporozoites) | EC50 (C. parvum) | TC50 HCT-8 (confluent) (HCT-8 cells) | TC50 HCT-8 (sub-confluent) (HCT-8 cells) | TC50 HFF (confluent) (HFF cells) | SI: selectivity index=EC50 HepG2/ EC50 compound (P. falciparum line Dd2) | parasite inhibition in pilot screen (C. parvum) |
| --- | --- | --- | --- | --- | --- | --- | --- | --- | --- | --- | --- |
| C=C1C(O)C[C@@H]2[C@](C)(CCC[C@]2(C)C(=O)O)[C@H]1CC(=O)O (stereo partly drawn) [compound 14, LL-Z1271β] | > 25 µM | > 30 µM | > 5e-06 M | > 5e-06 M | – | – | – | – | – | – | – |
| C[C@@H]1CCC2CC(=O)C[C@@H](O)CC/C=C/C=C\CC[C@H](C)OC(=O)[C@@H]3O[B-]45O[C@@H](C(=O)O[C@@H](C)CC/C=C\C=C\CC[C@H](O)CC(=O)CC6CC[C@@H](C)[C@]3(O6)O4)[C@@]1(O2)O5 [tartrolon E, reference compound] | – | – | – | – | completely inhibited parasite invasion | – | – | – | – | – | – |
| C[C@]12C(=O)O[C@@H]3C=C4C(=CC(=O)O[C@@H]4O)[C@@](C)(CC[C@H]1O)[C@@H]32 [compound 9, oidiolactone K] | > 25 µM | > 30 µM | > 5e-06 M | > 5e-06 M | – | – | – | – | – | – | – |
| CO[C@H]1OC(=O)C=C2C1=C[C@H]1OC(=O)[C@@]3(C)[C@H](O)CC[C@@]2(C)[C@@H]13 [compound 8, oidiolactone J] | > 25 µM | > 30 µM | > 5e-06 M | > 5e-06 M | – | 7.8 µM | > 30 µM | > 30 µM | > 30 µM | – | – |
| C[C@@]12CCC[C@]3(C)C4=CC(=O)O[C@H](O)C4=C[C@@H](OC1=O)[C@@H]23 [compound 10, yukonin] | – | – | – | – | – | 1.09 µM | > 30 µM | 2.5 ± 0.3 µM | > 30 µM | – | – |
| COC(=O)/C=C1/[C@]2(C=O)O[C@@H]2[C@H]2OC(=O)[C@@]3(C)CCC[C@@]1(C)[C@@H]23 [compound 6, oidiolactone I] | > 25 µM | > 30 µM | > 4.99e-06 M | 3.65e-06 ± 5.96e-07 M | – | 7.8 µM | > 30 µM | 4.8 ± 0.7 µM | > 30 µM | – | – |
| C[C@@]12CCC[C@]3(C)C4=CC(=O)OC[C@]45O[C@@H]5[C@@H](OC1=O)[C@@H]23 [compound 2, oidiolactone C] | 17.1 ± 0.821 µM | > 30 µM | 2.49e-06 ± 1.98e-07 M | 2.78e-06 ± 3.97e-07 M | – | 1.8 µM | > 30 µM | 1.35 ± 0.2 µM | > 30 µM | 7 | – |
| C[C@]12CCC[C@](C)(C(=O)O)[C@@H]1C=C[C@]1(O)COC(=O)C[C@H]21 [compound 13, oidiolactone E] | > 25 µM | – | > 5e-06 M | > 5e-06 M | – | – | – | – | – | – | – |
| COC(=O)/C=C1/[C@]2(C(OC)OC)O[C@@H]2[C@H]2OC(=O)[C@@]3(C)CCC[C@@]1(C)[C@@H]23 [compound 5, oidiolactone H] | – | > 30 µM | – | – | – | – | – | – | – | – | abolishes inhibitory activity |
| C[C@]1(C(=O)O)CCC[C@]2(C)C3=CC(=O)OCC3=CC[C@@H]12 [compound 11, oidiodendronic acid] | > 25 µM | > 30 µM | > 5e-06 M | > 5e-06 M | – | 9.1 µM | > 30 µM | 19.7 ± 4.8 µM | > 30 µM | – | – |
| C[C@]12C(=O)O[C@@H]3[C@H]4O[C@@]45C(=CC(=O)O[C@H]5O)[C@@](C)(CC[C@H]1O)[C@@H]32 [compound 4, oidiolactone G] | > 25 µM | > 30 µM | > 5e-06 M | > 5e-06 M | – | – | – | – | – | – | eliminates activity |
| C[C@@]12CCC[C@]3(C)c4cc(=O)occ4[C@H](O)[C@@H](OC1=O)[C@@H]23 [compound 12, oidiolactone L] | > 25 µM | > 30 µM | > 5e-06 M | > 5e-06 M | – | – | – | – | – | – | inactive |
| C[C@@]12CCC[C@]3(C)C4=CC(=O)O[C@@H](O)[C@]45O[C@@H]5[C@@H](OC1=O)[C@@H]23 [compound 3, oidiolactone D] | > 25 µM | > 30 µM | > 5e-06 M | > 5e-06 M | – | – | – | – | – | – | – |
